# Data from the Kinase Knowledgebase extract (Sharma et al. 2016).
# Target: MAPK14 (UniProt Q16539)
# Test: p38 Kinase Inhibition
# Sequence of MAPK14 (Q16539 whole entry, looked up): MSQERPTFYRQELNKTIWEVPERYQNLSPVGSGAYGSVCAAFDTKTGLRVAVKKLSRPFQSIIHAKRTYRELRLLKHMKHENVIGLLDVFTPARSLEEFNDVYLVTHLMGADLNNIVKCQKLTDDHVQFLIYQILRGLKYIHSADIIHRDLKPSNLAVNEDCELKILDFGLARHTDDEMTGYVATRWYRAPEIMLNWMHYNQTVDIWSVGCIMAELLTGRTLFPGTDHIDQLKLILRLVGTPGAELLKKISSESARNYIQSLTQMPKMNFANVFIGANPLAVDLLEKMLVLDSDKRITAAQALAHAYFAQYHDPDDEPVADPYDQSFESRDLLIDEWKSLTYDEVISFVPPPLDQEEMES
row,IC50 [µM],Compound
1,< 50,Cc1cccc(C)c1Nc1nccc(-c2c(-c3ccc(F)cc3)ncn2C2CCNCC2)n1
2,< 50,O=C(Nc1cccc(C(F)(F)F)c1)N1CCC(n2cnc(-c3ccc(F)cc3)c2-c2ccnc(Nc3ccccc3C(F)(F)F)n2)CC1
3,< 50,Fc1ccc(-c2ncn(C3CCCCC3)c2-c2ccnc(NCCc3c[nH]cn3)n2)cc1
4,< 50,Cc1ccccc1Nc1nccc(-c2c(-c3ccc(F)cc3)ncn2-c2ccc(F)cc2)n1
5,< 50,Cc1ccccc1Nc1nccc(-c2c(-c3ccc(F)cc3)ncn2C2CCNCC2)n1
6,< 50,Fc1ccc(-c2ncn(C3CCCCC3)c2-c2ccnc(NCCC(c3ccccc3)c3ccccc3)n2)cc1
7,< 50,Fc1ccc(-c2ncn(C3CCCC3)c2-c2ccnc(Nc3ccccc3)n2)cc1
8,< 50,CC(CCc1ccccc1)Nc1nccc(-c2c(-c3ccc(F)cc3)ncn2C2CCCCC2)n1 (stereo not given)
9,< 50,Fc1ccc(-c2ncn(-c3ccc(F)cc3)c2-c2ccnc(Nc3ccccc3)n2)cc1
10,< 50,Fc1ccc(-c2ncn(C3CCCCC3)c2-c2ccnc(NCCCN3CCOCC3)n2)cc1
11,< 50,Fc1ccc(-c2ncn(C3CCCCC3)c2-c2ccnc(Nc3ccccc3)n2)cc1
12,< 50,COc1ccc(C(=O)NCCn2cnc(-c3ccc(F)cc3)c2-c2ccnc(NCc3ccc(Cl)c(Cl)c3)n2)cc1OC
13,< 50,Cc1cccc(C)c1Nc1nccc(-c2c(-c3ccc(F)cc3)ncn2-c2ccc(F)cc2)n1
14,< 50,Cc1ccc(F)cc1Nc1nccc(-c2c(-c3ccc(F)cc3)ncn2C2CCNCC2)n1
15,< 50,Cc1cc(F)ccc1Nc1nccc(-c2c(-c3ccc(F)cc3)ncn2C2CCN(C(=O)OC(C)(C)C)CC2)n1
16,< 50,Fc1ccc(-c2ncn(C3CCCCC3)c2-c2ccnc(NCc3cccnc3)n2)cc1
17,< 50,Fc1ccc(-c2ncn(-c3ccc(F)cc3)c2-c2ccnc(N3CCOC(Nc4ccccc4)C3)n2)cc1 (stereo not given)
18,< 50,CC(C)n1cnc(-c2ccc(F)cc2)c1-c1ccnc(Nc2ccccc2)n1
19,< 50,CCOCC(=O)NCCn1cnc(-c2ccc(F)cc2)c1-c1ccnc(NCc2ccc(OC)cc2)n1
20,< 50,Fc1ccc(Nc2nccc(-c3c(-c4ccc(F)cc4)ncn3-c3ccc(F)cc3)n2)cc1
